The values below come from patent US7781445B2, “Synthesis of indenoisoquinoliniums and methods of use” (Purdue Research Foundation, priority 2005, dated 2010).

The GI50 is the concentration at which growth is held to half of that of the control.

Like-named read-outs stand apart in the source and are kept apart here.

The subject of one data set is SN12C. As to the kind of experiment: COMPARE screening (NCI), GI50 in SN12C. An excerpt: (§1) This in vitro prescreening system is based on the measurement of anticancer cytotoxicity against human cancer cell line panels consisting of approximately 60 cell lines of major human cancers (including leukemia, and slower growing tumor cells such as lung, colon, breast, skin, kidney, etc.) and is referred hereinafter as “COMPARE” screening.
(§2) COMPARE screening. The compounds described herein were examined for antiproliferative activity against the human cancer cell lines in the National Cancer Institute screen (COMPARE screening), in which the activity of each compound was evaluated with approximately 55 different cancer cell lines of diverse tumor origins. […] Therefore, the MGM value represents an overall assessment of toxicity of the compound across numerous cell lines.

The subject of the next data set is HCT-116. As to the kind of experiment: COMPARE screening (NCI), GI50 in HCT-116.
Excerpt: as §1, §2

For a further data set, the system named is OVCAR-3. The data set can be described thus: COMPARE screening (NCI), GI50 in OVCAR-3. The conditions noted are these: OVCAR-3, concentration corresponding to 50% growth inhibition.
Excerpt: as §1, §2

A further data set concerns SF-539. As to the kind of experiment: COMPARE screening (NCI), GI50 in SF-539.
Excerpt: as §1, §2

The next data set deals with DU-145. As to the kind of experiment: COMPARE screening (NCI), GI50 in DU-145.
Excerpt: as §1, §2

The next data set relates to MDA-MB-435. The data set can be described thus: COMPARE screening (NCI), GI50 in MDA-MB-435.
Excerpt: as §1, §2

In data set [1] the test system is all human cancer cell lines successfully tested (approximately 55). As to the kind of experiment: COMPARE screening, mean graph midpoint (MGM). It is filed as cell-based. The conditions noted are these: average GI50 over all cell lines tested, values outside 10^-8 to 10^-4 molar taken as the limits, read-out: MGM (mean graph midpoint for growth inhibition); for MGM (mean GI50 across cell lines): Homo sapiens.
Excerpt: as §1, §2

In the next data set the test system is UACC-62. As to the kind of experiment: COMPARE screening (NCI), GI50 in UACC-62.
Excerpt: as §1, §2

For another data set, the system named is HOP-62. As to the kind of experiment: COMPARE screening (NCI), GI50 in HOP-62.
Excerpt: as §1, §2

The test system of the next data set is SR.
Excerpt: as §1, §2

For the next data set, the target named is T1, topoisomerase I (Homo sapiens, UniProt P11387).
T1 sequence (P11387 1-765): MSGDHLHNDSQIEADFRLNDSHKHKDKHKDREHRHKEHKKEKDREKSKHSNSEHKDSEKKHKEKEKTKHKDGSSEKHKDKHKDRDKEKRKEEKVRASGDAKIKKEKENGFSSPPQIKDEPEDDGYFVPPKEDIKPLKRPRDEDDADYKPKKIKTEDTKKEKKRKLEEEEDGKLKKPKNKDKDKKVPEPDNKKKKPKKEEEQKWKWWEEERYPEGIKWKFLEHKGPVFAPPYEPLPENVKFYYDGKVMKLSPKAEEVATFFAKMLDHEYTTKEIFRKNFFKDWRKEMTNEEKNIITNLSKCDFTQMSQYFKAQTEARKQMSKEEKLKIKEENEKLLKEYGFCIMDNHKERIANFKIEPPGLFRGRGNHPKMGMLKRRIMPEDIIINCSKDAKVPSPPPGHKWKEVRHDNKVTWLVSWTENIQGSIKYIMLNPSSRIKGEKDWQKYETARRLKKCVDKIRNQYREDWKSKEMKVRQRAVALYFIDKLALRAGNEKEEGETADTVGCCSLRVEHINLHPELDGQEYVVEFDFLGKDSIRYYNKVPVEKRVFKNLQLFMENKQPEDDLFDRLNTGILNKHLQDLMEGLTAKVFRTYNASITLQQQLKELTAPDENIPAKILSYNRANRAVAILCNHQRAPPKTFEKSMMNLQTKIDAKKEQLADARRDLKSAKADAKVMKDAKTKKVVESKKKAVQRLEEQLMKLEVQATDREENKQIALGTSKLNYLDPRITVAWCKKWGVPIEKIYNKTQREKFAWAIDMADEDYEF
The data set can be described thus: Topoisomerase I-mediated DNA cleavage, 3'-end-labeled 161 bp pBluescript SK(-) fragment. It is filed as biochemical. The conditions noted are these: tested at concentrations ranging up to 10 μM, semi-quantitative relative to compound A. The procedure:
The assays were carried out at room temperature for 30 min and stopped by adding 0.5% SDS. […] Topoisomerase I was present in all reaction mixtures except for the one corresponding to the first lane.
Induction of DNA cleavage.
Labeling reactions were followed by phenol-chloroform extraction and ethanol precipitation. […] Reactions were terminated by adding 0.5% SDS.
DNA Cleavage Semiquantitative Analysis. […] The rubberband baseline correction was applied with band detection sensitivity set at 90.

The mark [2] stands for this setting: Homo sapiens, SN12C, read-out: Cytotoxicity GI50, renal SN12C, renal, SN12C, concentration corresponding to 50% growth inhibition.
Where [3] appears, read: Homo sapiens, HCT-116, read-out: Cytotoxicity GI50, colon HCT-116, colon, HCT-116, concentration corresponding to 50% growth inhibition.
[4] abbreviates: Homo sapiens, OVCAR-3, read-out: Cytotoxicity GI50, ovarian OVCAR-3, ovarian.
Where [5] appears, read: Homo sapiens, read-out: Cytotoxicity GI50, CNS SF-539.
Setting [6] is: Homo sapiens, MDA-MB-435, read-out: Cytotoxicity GI50, breast MDA-MB-435, breast, MDA-MB-435, concentration corresponding to 50% growth inhibition.
Setting [7] is: Homo sapiens, UACC-62, read-out: Cytotoxicity GI50, melanoma UACC-62, melanoma, UACC-62, concentration corresponding to 50% growth inhibition.
Where [8] appears, read: Homo sapiens, HOP-62, read-out: Cytotoxicity GI50, lung HOP-62, lung, HOP-62, concentration corresponding to 50% growth inhibition.
Where [9] appears, read: Homo sapiens, DU-145, read-out: Cytotoxicity GI50, prostate DU-145, prostate, DU-145, concentration corresponding to 50% growth inhibition.

In the case of `COc1cc2c[n+](CCCNC(C)=O)c3c(c2cc1OC)C(=O)c1cc2c(cc1-3)OCO2` [Compound 6ab, 2,3-Dimethoxy-6-(3-N-acetylamino-1-propyl)-8,9-(methylenedioxy)-11-oxo-indeno[1,2-c]isoquinolinium Chloride], the GI50 was found to be 2.76 µM in the data set on SN12C; 5.08 µM in the data set with HCT-116; 12.2 µM in the data set on OVCAR-3 (read-out: Cytotoxicity GI50, ovarian OVCAR-3, ovarian); 0.0968 µM with SF-539; 0.907 µM with DU-145; 0.466 µM in the data set with MDA-MB-435. Further, the values for the GI50 in the data set on UACC-62, in the data set on HOP-62 and with SR were 3.43 µM, 1 µM and 0.0929 µM, respectively. Further, the IC50 in [1] worked out at 7.96 µM.
Regarding `Cl.c1c2c(cc3c1OCO3)-c1ncc3cc4c(cc3c1C2)OCO4` [Compound 9bb, 2,3-Methylenedioxy-8,9-methylenedioxy-11H-indeno[1,2-c]isoquinoline Hydrochloride], the GI50 with SN12C (setting [2]) was 0.0414 µM; in the data set on HCT-116 (setting [3]), 0.283 µM; in the data set on OVCAR-3 (setting [4]), 0.0232 µM; in the data set on SF-539 (setting [5]) it was 0.598 µM; in the data set on MDA-MB-435 (setting [6]), under 0.01 µM; in the data set on UACC-62 (setting [7]) it was 0.19 µM. Further, in the data set on HOP-62 (setting [8]), the GI50 was 0.227 µM. Moreover, the MGM (mean GI50 across cell lines) in data set [1] is 0.272 µM. The “Top 1 Cleavage” value on topoisomerase I (Table 1) is on record as “++ (++, similar activity as compound A)”.
With `COc1cc2c(cc1OC)-c1ncc3cc(OC)c(OC)c(OC)c3c1C2.Cl` [Compound 9ca, 1,2,3,8,9-Pentamethoxy-11H-indeno[1,2-c]isoquinoline Hydrochloride], the GI50 with SN12C (setting [2]) was 14.4 µM; in the data set on HCT-116 (setting [3]) it was 31.8 µM; in the data set on OVCAR-3 (setting [4]), 15.9 µM; in the data set with SF-539 (setting [5]), 14 µM; in the data set with DU-145 (setting [9]), 21.7 µM; with MDA-MB-435 (setting [6]), 16.2 µM. The GI50 in the data set with UACC-62 (setting [7]) amounted to 7.42 µM; with HOP-62 (setting [8]), 34.8 µM. The MGM (mean GI50 across cell lines) in data set [1] worked out at 19.1 µM. For the same compound, the “Top 1 Cleavage” value on topoisomerase I (Table 2) was “+ (+, weak activity)”.
Consider `COc1cc2c3c(ncc2c(OC)c1OC)-c1c(ccc2c1OCO2)C3.Cl` [Compound 9cb, 2,3,4-Trimethoxy-7,8-methylenedioxy-11H-indeno[1,2-c]isoquinoline Hydrochloride], for which the GI50 in the data set with SN12C (setting [2]) is 0.602 µM; with HCT-116 (setting [3]), 0.0694 µM; in the data set with OVCAR-3 (setting [4]), 0.403 µM; in the data set with SF-539 (setting [5]), 0.869 µM; with DU-145 (setting [9]) it was over 100 µM; in the data set on MDA-MB-435 (setting [6]), 0.178 µM. Also, the GI50 in the data set with UACC-62 (setting [7]) stood at 0.439 µM; in the data set on HOP-62 (setting [8]), 0.234 µM. Moreover, the MGM (mean GI50 across cell lines) in data set [1] worked out at 2.01 µM. Moreover, the “Top 1 Cleavage” value on topoisomerase I (Table 2) was “++ (++, similar activity as compound A)”.
Take `COc1ccc2c(c1OC)-c1ncc3c(OC)ccc(OC)c3c1C2.Cl` [Compound 9da, 1,4,7,8-Tetramethoxy-11H-indeno[1,2-c]isoquinoline Hydrochloride]: the GI50 came out at 14.8 µM with SN12C (setting [2]); 17.8 µM with HCT-116 (setting [3]); 15.4 µM in the data set with OVCAR-3 (setting [4]); 14 µM in the data set with SF-539 (setting [5]); 28.1 µM in the data set on DU-145 (setting [9]); 23.4 µM in the data set with MDA-MB-435 (setting [6]). Moreover, the GI50 in the data set on UACC-62 (setting [7]) was determined as 18 µM; with HOP-62 (setting [8]) it was 21.4 µM. The MGM (mean GI50 across cell lines) in [1] came out at 18.6 µM. The “Top 1 Cleavage” value on topoisomerase I (Table 2) is given as 0 (0, no activity).
